According to patent US20080268435A1, “Brca1 Markers” (THE QUEEN'S UNIVERSITY OF BELFAST, priority 2004, published 2008):

Tests used:
Type in all cases: cell-based
[1] = system: HP1 and MDA-MB-231-zeo cell lines; assay: 72 hour dose inhibition study of etoposide, psoriasin-expressing HP1 vs empty vector MDA-MB-231-zeo cells; details: HP1 (exogenous psoriasin) vs MDA-MB231-zeo vector control; 72 h continuous exposure; from IC50 values; three independent experiments
Procedure: (§1) Cells were either untreated (lanes 1 and 2) or treated with 1 μM etoposide for 24 hours. The blot was reprobed for GAPDH as a loading control, (b) A Western blot evaluating the expression of psoriasin protein in the HCC-EV1 cell line (lanes 1 and 3) and the HCC-BR116 cell line (lanes 2 and 4). Cells were either untreated (lanes 1 and 2) or treated with 1 μM etoposide for 24 hours. The blot was reprobed for GAPDH as a loading control, (c) A 72 hour dose inhibition study investigating the effect of psoriasin expression on the response to etoposide in the HP1 and MDA-MB-231-zeo cell lines. The IC50 values were calculated from the sigmoidal dose response curves. […] (Symbols □=HP1 cell line (psoriasin expression) ▴=MDA-MB-231-zeo (empty vector control), (d) A 72 hour dose inhibition study investigating the effect of loss of psoriasin expression on the response to etoposide in the HCCEV1 cell line. The IC50 values were calculated from the sigmoidal dose response curves. The results represent three independent experiments. (Symbols ▴=siRNA to psoriasin □=scrambled sequence). […]
The HCC-EV1 cell line was treated with scrambled or psoriasin specific siRNA and after 24 hours seeded at 100,000 cells per well on 24 well tissue culture plates. […] After 72 h of continuous drug exposure, cells were detached with trypsin, and counted using a Z2 particle and size analyzer (Coulter, Miami, Fla.). […]

[2] = system: psoriasin (S100A7) mRNA and protein in HCC-EV1 and HCC-BR116 cells; assay: Northern and Western blot of psoriasin expression after etoposide treatment; details: BRCA1 deficient cells (HCC-EV1), 1 μM etoposide for 24 hours
Procedure: Cells were either untreated (lanes 1 and 2) or treated with 1 μM etoposide for 24 hours. The blot was reprobed for GAPDH as a loading control, (b) A Western blot evaluating the expression of psoriasin protein in the HCC-EV1 cell line (lanes 1 and 3) and the HCC-BR116 cell line (lanes 2 and 4). Cells were either untreated (lanes 1 and 2) or treated with 1 μM etoposide for 24 hours. The blot was reprobed for GAPDH as a loading control, (c) A 72 hour dose inhibition study investigating the effect of psoriasin expression on the response to etoposide in the HP1 and MDA-MB-231-zeo cell lines. The IC50 values were calculated from the sigmoidal dose response curves. The results represent three independent experiments. (Symbols □=HP1 cell line (psoriasin expression) ▴=MDA-MB-231-zeo (empty vector control), (d) A 72 hour dose inhibition study investigating the effect of loss of psoriasin expression on the response to etoposide in the HCCEV1 cell line. The IC50 values were calculated from the sigmoidal dose response curves. The results represent three independent experiments. (Symbols ▴=siRNA to psoriasin □=scrambled sequence). […]

[3] = system: HCC-EV1 cell line; assay: 72 hour dose inhibition study of etoposide in HCC-EV1 cells, psoriasin siRNA vs scrambled sequence; details: BRCA1 deficient HCC-EV cells, 72 h exposure, from IC50 values, three independent experiments
Procedure: as §1
For drug sensitivity assays HCC-EV and HCCBR cells were seeded onto 24-well tissue culture plates at a density of 100,000 cells per well. […] After 72 hours of continuous drug exposure, cells were detached with trypsin and counted using a Z2 particle and size analyser (Coulter, Miami, Fla.). […]

COc1cc([C@@H]2c3cc4c(cc3[C@@H](O[C@@H]3O[C@@H]5CO[C@@H](C)O[C@H]5[C@H](O)[C@H]3O)[C@H]3COC(=O)[C@H]23)OCO4)cc(OC)c1O [etoposide]
increase in sensitivity to etoposide induced by expression of psoriasin [1]: 4000 fold
expression of psoriasin mRNA and protein following etoposide treatment [2]: enhanced expression
increase in resistance to etoposide induced by inhibition of endogenous psoriasin [3]: greater than 20 fold
